Data: patent US20200261391A1, “METHODS OF REDUCING THE RISK OF A CARDIOVASCULAR EVENT IN A STATIN-TREATED SUBJECT BY INCREASING SERUM AND PLASMA EPA AND DPA LEVELS” (Amarin Pharmaceuticals Ireland Limited, priority 2019, published 2020)

Key:
[1] = system: patients with elevated triglyceride levels on statin therapy; test: REDUCE-IT endpoints by EPA blood level tertile in the icosapent ethyl group compared to placebo; assay type: in vivo, human
Method: To assess the relationship between on-treatment hsCRP and the primary and key secondary endpoints, subgroup analyses were carried out as done for the ITT population for patients grouped according to values greater or equal to or less than […] at baseline and at 2 years. To assess the relationship between on-treatment serum EPA and the primary and key secondary endpoints, Kaplan-Meier (KM) curves were produced for AMR101 treated patients grouped into tertiles based on their values at year 1 and were compared with the placebo-treated patients.
This is a study aimed towards determining a relative risk reduction (RRR) between subjects stratified by EPA tertiles in the REDUCE-IT clinical trial described above in Example 1. Samples were obtained from those subjects and total EPA and AA levels in human serum and plasma samples were determined according at least to the methods described in Example 7.
(§1) The objective of this study is to assess the effects of administering icosapent ethyl at 4 g per day to patients from the REDUCE-IT trial of Example 1. More specifically, patients from the REDUCE-IT trial of Example 1 were stratified by their EPA levels into one of three tertiles. Following stratification, the objective was to determine if the RRR differs between patients having EPA levels in the three different tertiles. For the data collected as shown in Tables 38-43 and FIGS. 52, 53, and 56-59, the tertiles were established based on data collected from subjects at 1 year, 2 years, and last visit following icosapent ethyl administration compared to placebo. Data are presented as an average of 1 year, 2 year, […], and end of study values. The data was further analyzed use both pooled and unpooled statistically methods.

[2] = system: patients with elevated triglyceride levels on statin therapy; test: REDUCE-IT endpoints by pooled (icosapent ethyl and placebo) EPA blood level tertile; assay type: in vivo, human; details: icosapent ethyl and placebo pooled
Description: as §1
(0.84 for lowest vs. placebo, 0.72 for middle vs. placebo, and 0.65 for highest vs. placebo).

[3] = EPA >189 μg/mL, on-treatment average of year 1, year 2, last visit
[4] = EPA >114.7 to ≤189 μg/mL, on-treatment average of year 1, year 2, last visit
[5] = EPA ≤114.7 μg/mL, on-treatment average of year 1, year 2, last visit
[6] = highest >118.1 μg/mL vs lowest ≤31.305 μg/mL
[7] = highest >118.1 μg/mL vs middle >31.305 to ≤118.1 μg/mL
[8] = middle >31.305 to ≤118.1 μg/mL vs lowest ≤31.305 μg/mL

Compound: CC/C=C\C/C=C\C/C=C\C/C=C\C/C=C\CCCC(=O)OCC [icosapent ethyl, eicosapentaenoic acid ethyl ester]
- key secondary endpoint HR, highest EPA tertile vs. placebo ([1]; EPA >189 μg/mL): 0.65
- primary endpoint HR, highest EPA tertile vs. placebo ([1]; EPA >189 μg/mL): 0.65
- HR (95% CI), Key Secondary Endpoint, Highest EPA tertile vs Placebo [1, 3]: 0.65 (0.54, 0.80)
- HR (95% CI), Primary Endpoint, Highest EPA tertile vs Placebo [1, 3]: 0.65 (0.55, 0.76)
- key secondary endpoint HR, middle EPA tertile vs. placebo ([1]; EPA >114.7 to ≤189 μg/mL): 0.65
- primary endpoint HR, middle EPA tertile vs. placebo ([1]; EPA >114.7 to ≤189 μg/mL): 0.72
- HR (95% CI), Key Secondary Endpoint, Middle EPA tertile vs Placebo [1, 4]: 0.65 (0.53, 0.79)
- HR (95% CI), Primary Endpoint, Middle EPA tertile vs Placebo [1, 4]: 0.72 (0.62, 0.85)
- key secondary endpoint HR, lowest EPA tertile vs. placebo ([1]; EPA blood level ≤114.7 μg/mL): 0.89
- primary endpoint HR, lowest EPA tertile vs. placebo ([1]; EPA blood level ≤114.7 μg/mL): 0.84
- HR (95% CI), Key Secondary Endpoint, Lowest EPA tertile vs Placebo [1, 5]: 0.89 (0.74, 1.07)
- HR (95% CI), Primary Endpoint, Lowest EPA tertile vs Placebo [1, 5]: 0.84 (0.72, 0.98)
- primary composite endpoint HR, highest EPA tertile vs. placebo ([1]; FIG. 53, ITT, EPA >190.55 μg/mL): 0.63
- primary composite endpoint HR, middle EPA tertile vs. placebo ([1]; FIG. 53, ITT, EPA >116.9 to ≤190.55 μg/mL): 0.74
- primary composite endpoint HR, lowest EPA tertile vs. placebo ([1]; FIG. 53, ITT, EPA ≤116.9 μg/mL): 0.85
- HR (95% CI), Key Secondary Endpoint, pooled EPA tertiles, Highest vs Lowest [2, 6]: 0.61 (0.51, 0.71)
- HR (95% CI), Primary Endpoint, pooled EPA tertiles, Highest vs Lowest [2, 6]: 0.65 (0.57, 0.74)
- HR (95% CI), Key Secondary Endpoint, pooled EPA tertiles, Highest vs Middle [2, 7]: 0.78 (0.65, 0.92)
- HR (95% CI), Primary Endpoint, pooled EPA tertiles, Highest vs Middle [2, 7]: 0.80 (0.70, 0.92)
- HR (95% CI), Key Secondary Endpoint, pooled EPA tertiles, Middle vs Lowest [2, 8]: 0.78 (0.67, 0.91)
- HR (95% CI), Primary Endpoint, pooled EPA tertiles, Middle vs Lowest [2, 8]: 0.81 (0.71, 0.92)
